According to patent US20200054646A1, “USE OF PHENOTHIAZINE DERIVATIVE IN THE TREATMENT OF INFECTIOUS PURPURA OR PURPURA FULMINANS” (priority 2016, published 2020):

What was measured:
[1] = tested on: HDMECs colonized by N. meningitidis; experiment: Basement membrane remodelling: Gelatin-FITC matrix degradation by infected HDMEC; assay type: cell-based, human; details: infected cells, 150 μg/ml Gentamicin alone, 24 h post-infection
Procedure: (A) Experimental procedure: HDMECs grown on a fluorescent matrix (Gelatin-Fitc) were colonized by N. meningitidis for 6 h. They were then treated with 150 μg/ml gentamicin for 1 h, then 15 min with Trifluoperazine (50 μM) (or solvent alone as control) and incubated for further 15 h in the presence of 150 μg/ml gentamicin. (B) Fluorescence microscopy was used to visualize cells stained with labelled phalloidin and the fluorescent matrix. The presence of dark zones corresponds to zones of matrix degradation. (C) Quantification of the percentage of matrix degradation, using Image J software.
Plastic coverslips (13 mm diameter) (Nalgen #174950) were washed in ethanol 70%, dried then coated with poly-L-lysine 1 mg/ml for 20 min at room temperature. After one wash in sterile PBS, 0.5% Glutaraldehyde was added for 15 min at room temperature. After three washes in PBS, Gelatin-FITC (0.2 mg/ml Invitrogen #G13187) was added for 10 minutes at room temperature in the dark. Coverslip were then washed with sterile PBS and treated with 5 mg/ml sodium borohydride for 3 min. After three washes in sterile PBS, 10^5 HDMECs (PromoCell #C-12210) were seeded per well in their PromoCell culture medium and incubated overnight at 37° C. 5% CO2. The day after, cells were infected with Neisseria meningitidis Nm2C4.3, as above described. […] Quantifications were performed using ImageJ software (NIH).

[2] = tested on: meningococcal colonization of human brain vessels; set-up: species or system Neisseria meningitidis; details: 40 μM for 30 min
Text: Fresh human brain sections were obtained from frontal lobe specimens of macroscopically and histologically normal brain (confirmed by a neuropathologist) of individuals referred to the Department of Forensic Medicine for unexplained out-of-hospital sudden death (consent forms ML1094, PFS 10-008, ClinicalTrials.gov NCT00320099 from The Institutional Review Boards of the Poincare Hospital, Versailles-Saint Quentin University and the French “Agence de la Biomédecine”). After freezing of the brain tissue with isopentane cooled in liquid nitrogen, the sections, 7 μm thick, containing leptomeninges, cortical ribbon and the underlying white matter were immobilised on Superfrost™ plus microscope slides and stored at −80° C. […] Adherent meningococci were detected by immunofluorescence analysis: brain sections were incubated with the following primary antibodies for 2 h in PBS/BSA 0.1%: monoclonal anti-human CD31/PECAM-1 mouse monoclonal antibody (clone HEC7, ABCAM, ab119339) and a rabbit polyclonal serum anti-Nm 2C4.3 strain (1:3000). […] Entire samples were scanned using a Lamina (Perkin Helmer) and were further analysed using confocal microscopy (spinning disk Leica, 63×). Quantification analysis of the images (n=50 per section) was performed using ImageJ software (NIH). […]

[3] = tested on: HBMECs infected with meningococci; experiment: PECAM-1 recruitment at bacterial adhesion sites in infected HBMEC; assay type: cell-based, human; details: 5 μM, 2 h infection
Procedure: (A) Monolayers of HBMECs were non-infected or infected for 2 h with meningococci and the effect on the localisation of the endothelial cell junction proteins PECAM-1 and […]-catenin was analysed by immunofluorescence analysis. Arrows point at PECAM-1 molecules recruited at bacterial adhesion sites (B) HBMECs were infected for 2 h with meningococci in the presence or in the absence of 5 μM Trifluoperazine and the effect on junctional PECAM-1 and on the endothelial cell cytoskeleton remodelling (Ezrin, Actin) was analysed by immunofluorescence analysis. (C) Quantification of Actin and PECAM-1 recruitment at sites of bacterial adhesion was performed using Image J software.
HDMECs were grown in their specific culture medium (Promocell #C-12210) and confluent monolayers were infected with 2C4.3. Briefly, bacteria were precultured in prewarmed cell culture medium for 1 h 30 min at 37° C. 5% CO2. The OD600 was adjusted to 0.1 and HDMECs were then overlaid with bacteria for 30 min (MOI of 100). Unbound bacteria were removed by three washes in cell culture media and infection was allowed to proceed for 1 h at 37° C. 5% CO2. Gentamicin was added at 150 μg/ml for 1 h, then after three washes in cell culture media, Trifluoperazine was applied where mentioned at 50 μM for 20 min. […] Quantifications were done using ImageJ software (NIH).

[4] = tested on: Nm2C4.3 microcolonies on HCMEC/D3; assay type: cell-based, Neisseria meningitidis
Procedure: HCMEC/D3, a well-established human brain endothelial cell line (Weksler et at, 2013) was grown in EBM-2 basal medium (Lonza, Walkersville, Md., USA) supplemented with 5% Fetal Bovine Serum “Gold”, 10 mM HEPES (PAA Laboratories GmbH, Pasching, Austria), 1% Penicillin-Streptomycin, 1% chemically defined lipid concentrate (Invitrogen Ltd, Paisley, UK), 1.4 μM hydrocortisone, 5 μg·ml^−1 ascorbic acid and 1ng·ml^−1 bFGF (Sigma-Aldrich, St. Louis, Mo.). Cells were grown on Thermanox coverslips coated with rat collagen I for 4 days at 37° C. in a humidified incubator in 5% CO2. Cells were then infected with a suspension of Nm2C4.3 (˜10^7 CFU/ml) in EBM2/FBS during 30 minutes to allow bacterial adhesion. Cells were then washed three times with medium to remove non-adherent bacteria and infection was pursued for 1 h 30: adherent bacteria grew at the endothelial cell surface and formed micro-colonies. Trifluoperazine was then added to obtain final concentrations of 10, 20, 30 and 40 μM. After incubation for 30 minutes, cells were washed and fixed in 4% Paraformaldehyde for 10 min, washed three times with PBS, and permeabilized with 0.1% Triton X-100 in PBS for 10 min. […] Quantification was done with ImageJ software (NIH). […]

[5] = tested on: Enteropathogenic Escherichia Coli (EPEC escN mutant, GFP) microcolonies on HBMEC; experiment: Dispersion of EPEC microcolonies at the surface of human endothelial cells; assay type: cell-based; details: 10 to 50 μM, 30 min, dose-dependent
Procedure: Human bone marrow microvascular endothelial cells (HBMEC) were infected with a GFP-expressing mutant Enteropathogenic Escherichia Coli, which lacks the ATPase escN (EPEC […]escN-GFP) for 2 h, then treated with Trifluoperazine (10-50 μM) for 30 minutes, before fixation and immunofluorescence analysis using Alexa Fluor 633 Phalloidin. (A) Representative fluorescence microscopy showing bacterial colony (white dots) formed at the surface of the endothelial cells. (B) Quantification of the bacterial colonization was performed using Image J software.
HBMEC were grown on Thermanox coverslips coated with gelatin 2% for 2 days to reach confluency. Cells were then infected for 1 h with a GFP-expressing mutant Enteropathogenic Escherichia Coli (EPEC), which lacks the ATPase escN. This strain is unable to translocate effector proteins and is more prone to form pilus-dependent microcolony at the host cell surface (Jensen et al., 2015). Cells were then washed three times with medium to remove non-adherent bacteria and infection was pursued for 1 extra hour, to allow bacterial growth at the endothelial cell surface to form microcolonies. Trifluoperazine was then added to obtain final concentrations of 10, 20, 30 and 50 μM. After incubation for 30 minutes, cells were washed and fixed in 4% Paraformaldehyde for 10 min, washed three times with PBS. […] Quantification was done with ImageJ software (NIH). […]

Compound	degradation of the basement membrane [1]	reduction of vascular colonization of the human brain vessels [2] [%]	PECAM-1 recruitment at bacterial adhesion sites [3]	bacterial colonization [3]	concentration range of dose-dependent microcolony dispersion ([4]; 30 min, HCMEC/D3) [µM]	dispersion of microcolonies on human brain endothelial cells ([4]; treatment for 30 min)	dispersion of EPEC microcolonies [5]
CN[C@@H]1[C@@H](O)C(O[C@@H]2[C@@H](O)[C@H](O[C@H]3O[C@H]([C@@H](C)NC)CC[C@H]3N)[C@@H](N)C[C@H]2N)OC[C@]1(C)O (stereo partly drawn) [Gentamicin, (3R,4R,5R)-2-{[(1S,2S,3R,4S,6R)-4,6-diamino-3-{[(2R,3R,6S)-3-amino-6-[(1R)-1-(methylamino)ethyl]oxan-2-yl]oxy}-2-hydroxycyclohexyl]oxy}-5-methyl-4-(methylamino)oxane-3,5-diol]	about 20%	–	–	–	–	–	–
CN1CCN(CCCN2c3ccccc3Sc3ccc(C(F)(F)F)cc32)CC1 [Trifluoperazine]	–	80	prevented PECAM-1 recruitment	did not affect	10 to 40	induced their dispersion	induced the dispersion
